Entries after “also recorded” stand apart in the source; their conditions may differ. Peptide text beside a SMILES is read from it. * marks the point of attachment. X1 = COC(=O)CC(N*)C(=O)COc1c(F)cccc1F; Quinaldoyl = O=C(c1ccc2ccccc2n1)*
Assays:
caspase-2 = target: T1, caspase-2 (Rattus norvegicus, UniProt P55215); test: Dosage of caspase-2 activity in myocardial tissue, reperfusion ischemia (IR) model; type: in vivo; conditions: administered 15 min before the reperfusion, VGZI and septum
T1 construct: Each fragment of tissue was rapidly frozen in liquid nitrogen and kept at −80° C; from tissue; host or cells: rat myocardium (left ventricle, right ventricle, septum, apex) extracts
T1 sequence (P55215 170-325 limits assumed): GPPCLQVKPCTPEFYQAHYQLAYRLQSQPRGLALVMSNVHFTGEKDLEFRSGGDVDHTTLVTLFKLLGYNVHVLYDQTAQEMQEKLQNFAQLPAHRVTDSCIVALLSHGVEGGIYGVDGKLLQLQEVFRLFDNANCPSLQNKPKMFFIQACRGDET
T1 sequence (P55215 348-452 limits assumed): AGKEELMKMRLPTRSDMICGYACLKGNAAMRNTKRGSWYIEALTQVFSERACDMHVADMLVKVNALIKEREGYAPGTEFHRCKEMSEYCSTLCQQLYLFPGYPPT

[1] = system: ventricular cardiomyocytes; test: Patch-clamp electrophysiological recordings on ventricular cardiomyocytes of PMI rats; type: in vivo, rat; conditions: for density of transitory current coming out (Ito): cardiomyocytes of the sub-epicardic layer; for membrane capacity (cellular size; hypertrophy induced by myocardial ischemia): cardiomyocytes after 4-5 months
Description: The isolated ventricular cardiomyocytes were obtained by enzymatic dissociation with collagenase by Langendorf reversed perfusion (Fauconnier, 2005). The rats were heparinized (0.2 ml, GIBCO® 1000 Ul/ml) and anaesthetized by intraperitoneal injection of pentobarbital ([…], Sanofi Santé, France). The heart was rapidly excised and a retrograde perfusion through the aorta, was performed for 5 min with a calcium-free washing solution (in mM: NaCl 117, KCl 5.7, NaHCO3 4.4, KH2PO4 1.5, MgCl2 1.7, HEPES 21, glucose 11, taurine 20, pH 7.2 (adjusted with NaOH) and O2-bubbled) at 37° C. The solution was then replaced by a similar medium containing 1.3 mg·ml^−1 of collagenase of type IV (Worthington, Freehold, N.J., USA) and perfused during 20-30 min. The heart was then perfused with the initial solution containing 2,3-butanedione monoxime as inhibitor of the muscular contraction (15 mM BDM). The ventricles were then delicately separated and, by mechanic stirring, the cardiomyocytes were liberated in the medium. The dissociated cells were washed in the same solution wherein increased concentrations of CaCl2 were added (0.3, 1, 1.8 mM). The cells of the sub-epicardial layer (EPI) were separated from the sub-endocardial layer (ENDO) by simple manual dissection.
The potentials of action (PA) and ionic currents were measured by the patch-clamp technique in whole cell configuration using an amplifier RK 400 (Biologic, Claix France) interfaced by a analogical/numerical converter DIGIDATA 1200 (Axon Instrument, Sunnyvale, Calif., USA) controlled by a PC. The acquisition and analysis of the data were realized with pCLAMP program (Axon Instrument, Sunnyvale, Calif., USA). The sampling frequency was of 10 KHz and the signals filtrated at 3 KHz. Pipettes comprised between 1 and 1.5 MΩ were used to ensure a good quality of voltage. For the measure of the potentials of action, the pipettes were filled with an internal solution (in mM: 130 KCl, 25 HEPES, 3 MgATP, 0.4 NaGTP, and 0.5 EGTA; the pH was adjusted at 7.2 with KOH). The external medium was composed of (in mM): 135 NaCl, 1 MgCl2, 4 KCl, 11 glucose, 2 HEPES, and 1.8 CaCl2; the pH was adjusted to 7.2. with NaOH.
The PA were started by injections of current of 0.2 ms at an intensity slightly higher than the supraliminal intensity threshold. The transitory potassium current coming out (Ito) was measured with the same internal and external solution (10 μM of tetrodotoxine (TTX) and 2 mM of cobalt chloride were added to the external medium to become independent from the […] and calcic currents, respectively. Ito was measured from depolarizing pulses.
The patch-clamp electrophysiological technique enables the membrane capacity (which reflects the cellular size) to be measured (this capacity reflects the cellular size). The results obtained with the above animals groups confirm the hypertrophy induced by the myocardial ischemia.

[2] = system: ANF, BNP, fibronectin, β-MHC, TNFR1, TNFR2, TNFα, caspase-2 mRNA; test: Quantitative RT-PCR of heart failure, fibrosis, hypertrophy and TNFα signaling markers after ischemia/reperfusion; type: in vivo, rat; conditions: IR model; for mRNA expression level of TNFα / mRNA expression level of TNFα receptor 1 (TNFR1) / mRNA expression level of TNFα receptor 2 (TNFR2) / mRNA expression level of caspase-2: increase in vehicle-injected animals; for mRNA expression level of β-Myosin Heavy Chain (β-MHC): marker for hypertrophy development; for mRNA expression level of fibronectin: marker of fibrosis development; for mRNA expression level of Atrial Natriuretic Factor (ANF) / mRNA expression level of brain natriuretic peptide (BNP): marker of heart failure
Description: In a second series of experiments, quantitative RT-PCR was performed to evaluate the level of expression of 2 markers of heart failure, Atrial Natriuretic Factor (ANF) and Brain Natriuretic Factor (BNP) as well as a marker of myocardial fibrosis, fibronectine, and myocardial hypertrophy, βMHC. […] B. mRNA expression levels of fibronectin a marker of fibrosis development, and β-Myosin Heavy Chain (β-MHC) a marker for hypertrophy development

## CC(C)[C@H](NC(=O)c1ccc2ccccc2n1)C(=O)N[C@@H](CC(=O)O)C(=O)COc1c(F)cccc1F [Q-VD-OPH]
caspase-2
  caspase-2 activity: inhibits the activity of both caspases
caspase-2; listed as QVDOPH
  caspase-2 activity: normalization of the activity
[1]
  density of transitory current coming out (Ito): do not present any improvement; also recorded: no effect
[1]; pre-treatment
  membrane capacity (cellular size; hypertrophy induced by myocardial ischemia): has not effect
[2]
  mRNA expression level of TNFα: prevented
  mRNA expression level of TNFα receptor 1 (TNFR1): prevented
  mRNA expression level of TNFα receptor 2 (TNFR2): prevented
  mRNA expression level of caspase-2: prevented
  mRNA expression level of β-Myosin Heavy Chain (β-MHC): blocked
  mRNA expression level of fibronectin: blocked
  mRNA expression level of Atrial Natriuretic Factor (ANF): comparable to sham-operated animals
  mRNA expression level of brain natriuretic peptide (BNP): comparable to sham-operated animals

## COC(=O)CC(NC(=O)[C@H](C)NC(=O)[C@@H](NC(=O)[C@H](CC(=O)OC)NC(=O)[C@@H](NC(=O)c1ccc2ccccc2n1)C(C)C)C(C)C)C(=O)COc1c(F)cccc1F (stereo partly drawn) [D1, (3S,6S,9S,12S)-methyl 15-(2-(2,6-difluorophenoxy)acetyl)-3,9-diisopropyl-6-(2-methoxy-2-oxoethyl)-12-methyl-1,4,7,10,13-pentaoxo-1-(quinolin-2-yl)-2,5,8,11,14-pentaazaheptadecan-17-oate] (Quinaldoyl-VD(OMe)VA-X1)
caspase-2
  caspase-2 activity: normalization of the activity; also recorded: specifically inhibits
[1]
  density of transitory current coming out (Ito): very preserved; also recorded: significantly restored
[1]; pre-treatment
  membrane capacity (cellular size; hypertrophy induced by myocardial ischemia): highly prevented
[1]; pre-treatment, sub-epicardial and sub-endocardial cardiomyocytes
  potential of action (PA) duration remodeling, transmural EPI/ENDO gradient: total absence of PA remodeling
[2]
  mRNA expression level of TNFα: prevented
  mRNA expression level of TNFα receptor 1 (TNFR1): prevented
  mRNA expression level of TNFα receptor 2 (TNFR2): prevented
  mRNA expression level of caspase-2: prevented
  mRNA expression level of β-Myosin Heavy Chain (β-MHC): blocked
  mRNA expression level of fibronectin: blocked
  mRNA expression level of Atrial Natriuretic Factor (ANF): comparable to sham-operated animals
  mRNA expression level of brain natriuretic peptide (BNP): comparable to sham-operated animals

Reference: patent publication US20100184703A1, “USE OF PEPTIDE DERIVATIVES FOR TREATING PATHOLOGIES RESULTING FROM ISCHEMIA” (CHIESI FARMACEUTICI S.p.A., priority 2007, published 2010)
